The source of these data is patent publication US20030050212A1, “Constituent of washing aid having anti-bacterial or the like component” (priority 2001, published 2003).

Data set [1] relates to bacteria. Briefly: anti-bacterial effect of Ag ions. The conditions noted are these: Ag ions at 1 ppm concentration. An excerpt: Anti-bacterial material, for example silver ions, of high concentration dispersions towards the low concentration area. By means of a physical stirring and agitating, the anti-bacterial is adsorbed onto the fabric under cleaning.
Data set [2] is described as follows: oral test LD 50. Format: in vivo. The text has this: (§1) In actual application, 1 g of MFS 350 anti-bacterial material into 1 kg of raw material can provide a satisfactory result. Of course, the concentration can be adjusted in accordance with the requirements. In experiment, Ag ions oral test LD 50 is larger than 5000 mg1 kg, lethal test LD 50 is larger than 2000 mg1 Kg, which is relatively safe. […] The preferable metallic powder is powdery particle of nanometer in size having an excellent surface ratio. That is, under the same physical condition, a reaction surface is larger; preferably the physical size is 200 nanometer, preferably in the range of 50 to 100 nanometers.

Data set [3] is described as follows: lethal test LD 50. The conditions noted are these: in vivo.
Text: as §1

For the compound `[Ag+]` [Ag ions], the anti-bacterial effect entry in data set [1] is “possess anti-bacterial effect”. The “oral test LD 50” value in data set [2] was above 5000 mg1 kg. In addition, the “lethal test LD 50” value in data set [3] was above 2000 mg1 Kg.
